# Target: Metabotropic glutamate receptor 2 (Homo sapiens, UniProt Q14416)
# Sequence (Q14416 whole entry): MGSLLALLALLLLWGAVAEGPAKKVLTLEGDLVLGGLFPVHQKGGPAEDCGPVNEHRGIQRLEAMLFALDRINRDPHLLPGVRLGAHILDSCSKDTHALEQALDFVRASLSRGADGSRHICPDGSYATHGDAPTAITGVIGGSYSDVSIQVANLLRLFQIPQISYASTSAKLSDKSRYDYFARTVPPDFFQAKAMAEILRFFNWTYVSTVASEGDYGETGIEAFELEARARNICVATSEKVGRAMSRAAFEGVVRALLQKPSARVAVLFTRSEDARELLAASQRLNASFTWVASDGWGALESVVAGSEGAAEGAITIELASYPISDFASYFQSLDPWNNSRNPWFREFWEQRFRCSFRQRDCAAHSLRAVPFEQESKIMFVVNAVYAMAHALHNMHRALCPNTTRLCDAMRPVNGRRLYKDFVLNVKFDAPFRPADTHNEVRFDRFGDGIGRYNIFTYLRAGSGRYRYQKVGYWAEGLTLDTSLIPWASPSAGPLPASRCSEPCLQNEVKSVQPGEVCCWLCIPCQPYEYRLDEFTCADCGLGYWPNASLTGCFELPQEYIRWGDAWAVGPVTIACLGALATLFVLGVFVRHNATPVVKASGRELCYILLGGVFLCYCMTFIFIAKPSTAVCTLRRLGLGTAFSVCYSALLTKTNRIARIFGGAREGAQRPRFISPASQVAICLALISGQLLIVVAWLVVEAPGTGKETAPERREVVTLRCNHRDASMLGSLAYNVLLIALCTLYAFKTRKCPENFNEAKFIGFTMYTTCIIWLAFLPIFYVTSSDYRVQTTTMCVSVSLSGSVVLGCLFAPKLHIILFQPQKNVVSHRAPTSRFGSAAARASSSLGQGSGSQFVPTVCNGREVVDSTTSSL
row,Ki [nM],SMILES
1,> 10000,C[C@@](N)(C(=O)O)c1ccc(C(=O)O)cc1 (racemic)
2,10,NC(Cn1cnc2c(=O)[nH]c(=O)[nH]c21)(C(=O)O)C1CC1C(=O)O (centres undefined) [CAS_5311260]
3,60,N[C@H](C(=O)O)C1[C@@H](C(=O)O)[C@@H]1C(=O)O (some centres undefined) [DCG-IV]
4,70,N[C@H](C(=O)O)[C@H]1C[C@H]1C(=O)O [L-CCG-IV]
5,> 10000,C[C@](N)(C(=O)O)C1C[C@@H]1C(=O)O (some centres undefined) [MCCG-I]

row,SMILES,Ki [nM]
1,N[C@@H](CCP(=O)(O)O)C(=O)O,> 10000
2,"N[C@@]1(C(=O)O)CC[C@H](C(=O)O)C1 [1S, 3R-ACPD]",2000
3,"N[C@@H](Cn1oc(=O)[nH]c1=O)C(=O)O [2-amino-3-(3,5-dioxo[1,2,4]oxadiazolidin-2-yl)propionic acid]",> 10000
4,N[C@H](CP(=O)(O)O)C(=O)O [CAS_23052-80-4],> 10000

# Source: BindingDB's records for PubMed 9463480 (F. Hoffmann-La Roche, 1998)
